Experiments:
[1] = test system: Mycobacterium tuberculosis; experiment: Antitubercular activity against Mycobacterium tuberculosis H37Rv ATCC 27294 after 5 to 8 days by microplate alamar blue assay; type: functional
[2] = test system: Mycobacterium tuberculosis; experiment: Antimycobacterial activity against Mycobacterium tuberculosis H37Rv ATCC 27294 assessed as growth inhibition at 6.25 ug/ml after 5 to 8 days by microplate alamar blue assay relative to control; type: functional; details: read-out: GI

Compound: CN1C(=O)/C(=N\Nc2ccccc2[N+](=O)[O-])C(=O)c2ccccc21
- MIC [1]: < 6.25 µg/mL
- inhibition of growth at 6.25 µg/mL [2]: 94%

Compound: O=C1Nc2c(ccc(Cl)c2Cl)C(=O)/C1=N/Nc1ccc([N+](=O)[O-])cc1
- MIC [1]: < 6.25 µg/mL
- inhibition of growth at 6.25 µg/mL [2]: 89%

Compound: O=C1Nc2c(ccc(Cl)c2Cl)C(=O)/C1=N/Nc1ccccc1
- MIC [1]: < 6.25 µg/mL
- inhibition of growth at 6.25 µg/mL [2]: 85%

Compound: O=C1Nc2c(cccc2[N+](=O)[O-])C(=O)/C1=N/Nc1cccc(Cl)c1
- MIC [1]: < 6.25 µg/mL
- inhibition of growth at 6.25 µg/mL [2]: 82%

Compound: O=C1Nc2c(cccc2[N+](=O)[O-])C(=O)/C1=N/Nc1ccccc1[N+](=O)[O-]
- MIC [1]: < 6.25 µg/mL
- inhibition of growth at 6.25 µg/mL [2]: 80%

Compound: O=C1Nc2c(cccc2[N+](=O)[O-])C(=O)/C1=N/Nc1ccc(Cl)c(Cl)c1
- MIC [1]: < 6.25 µg/mL
- inhibition of growth at 6.25 µg/mL [2]: 79%

Compound: O=C1Nc2cc([N+](=O)[O-])ccc2C(=O)/C1=N/Nc1ccc(Cl)c(F)c1
- MIC [1]: < 6.25 µg/mL
- inhibition of growth at 6.25 µg/mL [2]: 70%

Compound: O=C1Nc2ccc(Cl)cc2C(=O)/C1=N/Nc1ccccc1[N+](=O)[O-]
- MIC [1]: < 6.25 µg/mL
- inhibition of growth at 6.25 µg/mL [2]: 64%

Compound: O=C1Nc2c(cccc2[N+](=O)[O-])C(=O)/C1=N/Nc1cccc([N+](=O)[O-])c1
- MIC [1]: < 6.25 µg/mL
- inhibition of growth at 6.25 µg/mL [2]: 60%

Compound: Cc1cccc(C)c1N/N=C1\C(=O)Nc2ccc(Cl)cc2C1=O
- MIC [1]: > 6.25 µg/mL
- inhibition of growth at 6.25 µg/mL [2]: 13%

Compound: COc1ccc(N/N=C2\C(=O)Nc3ccc(Cl)cc3C2=O)c(C)c1
- MIC [1]: > 6.25 µg/mL
- inhibition of growth at 6.25 µg/mL [2]: 12%

Compound: Cc1ccc(N/N=C2\C(=O)Nc3c(Cl)ccc(Cl)c3C2=O)cc1
- MIC [1]: > 6.25 µg/mL
- inhibition of growth at 6.25 µg/mL [2]: 11%

Compound: CN1C(=O)/C(=N\Nc2ccc(Cl)c(Cl)c2)C(=O)c2ccccc21
- MIC [1]: > 6.25 µg/mL
- inhibition of growth at 6.25 µg/mL [2]: 10%

Compound: O=C1Nc2c(Cl)cccc2C(=O)/C1=N/Nc1ccccc1Cl
- MIC [1]: > 6.25 µg/mL
- inhibition of growth at 6.25 µg/mL [2]: 7%

Compound: CC(=O)c1ccc(N/N=C2\C(=O)Nc3cc(Cl)ccc3C2=O)cc1
- MIC [1]: > 6.25 µg/mL
- inhibition of growth at 6.25 µg/mL [2]: 6%

Compound: COc1ccc(N/N=C2\C(=O)Nc3cc(Cl)ccc3C2=O)cc1
- MIC [1]: > 6.25 µg/mL
- inhibition of growth at 6.25 µg/mL [2]: 4%

Compound: O=C1Nc2cc(Cl)ccc2C(=O)/C1=N/Nc1ccc([N+](=O)[O-])cc1
- MIC [1]: > 6.25 µg/mL
- inhibition of growth at 6.25 µg/mL [2]: 1%

Compound: COc1ccc2c(c1)C(=O)/C(=N/Nc1ccccc1)C(=O)N2
- MIC [1]: > 6.25 µg/mL
- inhibition of growth at 6.25 µg/mL [2]: 0%

Compound: O=C1Nc2c(Cl)ccc(Cl)c2C(=O)/C1=N/Nc1cccc(Cl)c1
- MIC [1]: > 6.25 µg/mL
- inhibition of growth at 6.25 µg/mL [2]: 32%

Compound: COc1ccccc1N/N=C1\C(=O)Nc2c(cccc2[N+](=O)[O-])C1=O
- MIC [1]: > 6.25 µg/mL
- inhibition of growth at 6.25 µg/mL [2]: 32%

Compound: Cc1cccc(N/N=C2\C(=O)Nc3c(C)cccc3C2=O)c1
- MIC [1]: > 6.25 µg/mL
- inhibition of growth at 6.25 µg/mL [2]: 31%

Compound: Cc1ccc2c(c1)NC(=O)/C(=N\Nc1ccccc1Cl)C2=O
- MIC [1]: > 6.25 µg/mL
- inhibition of growth at 6.25 µg/mL [2]: 31%

Compound: CC(=O)c1ccc(N/N=C2\C(=O)Nc3ccc(Cl)cc3C2=O)cc1
- MIC [1]: > 6.25 µg/mL
- inhibition of growth at 6.25 µg/mL [2]: 29%

Compound: O=C1Nc2c(ccc(Cl)c2Cl)C(=O)/C1=N/Nc1cccc([N+](=O)[O-])c1
- MIC [1]: > 6.25 µg/mL
- inhibition of growth at 6.25 µg/mL [2]: 27%

Compound: CC(=O)c1ccc(N/N=C2\C(=O)Nc3c(Cl)cccc3C2=O)cc1
- MIC [1]: > 6.25 µg/mL
- inhibition of growth at 6.25 µg/mL [2]: 24%

Compound: O=C1Nc2c(Cl)cccc2C(=O)/C1=N/Nc1cccc([N+](=O)[O-])c1
- MIC [1]: > 6.25 µg/mL
- inhibition of growth at 6.25 µg/mL [2]: 24%

Compound: Cc1cccc(C)c1N/N=C1\C(=O)Nc2c(cccc2[N+](=O)[O-])C1=O
- MIC [1]: > 6.25 µg/mL
- inhibition of growth at 6.25 µg/mL [2]: 22%

Compound: O=C1Nc2c(Cl)cccc2C(=O)/C1=N/Nc1ccc(Cl)c(Cl)c1
- MIC [1]: > 6.25 µg/mL
- inhibition of growth at 6.25 µg/mL [2]: 21%

Compound: O=C1Nc2cc([N+](=O)[O-])ccc2C(=O)/C1=N/Nc1cccc(Cl)c1Cl
- MIC [1]: > 6.25 µg/mL
- inhibition of growth at 6.25 µg/mL [2]: 21%

Compound: CN1C(=O)/C(=N\Nc2ccc([N+](=O)[O-])cc2)C(=O)c2ccccc21
- MIC [1]: > 6.25 µg/mL
- inhibition of growth at 6.25 µg/mL [2]: 20%

Compound: CC(=O)c1ccc(N/N=C2/C(=O)c3ccccc3N(C)C2=O)cc1
- MIC [1]: > 6.25 µg/mL
- inhibition of growth at 6.25 µg/mL [2]: 20%

Compound: Cc1cccc(N/N=C2\C(=O)Nc3cc([N+](=O)[O-])ccc3C2=O)c1
- MIC [1]: > 6.25 µg/mL
- inhibition of growth at 6.25 µg/mL [2]: 19%

Compound: COc1ccc(N/N=C2\C(=O)Nc3c(ccc(Cl)c3Cl)C2=O)cc1
- MIC [1]: > 6.25 µg/mL
- inhibition of growth at 6.25 µg/mL [2]: 14%

Compound: Cc1ccc(N/N=C2\C(=O)Nc3c(ccc(Cl)c3Cl)C2=O)cc1
- MIC [1]: < 6.25 µg/mL
- inhibition of growth at 6.25 µg/mL [2]: 54%

Compound: O=C1Nc2cc(Cl)ccc2C(=O)/C1=N/Nc1ccc(F)cc1
- MIC [1]: < 6.25 µg/mL
- inhibition of growth at 6.25 µg/mL [2]: 50%

Compound: Cc1cccc(N/N=C2\C(=O)Nc3c(cccc3[N+](=O)[O-])C2=O)c1C
- MIC [1]: > 6.25 µg/mL
- inhibition of growth at 6.25 µg/mL [2]: 48%

Compound: O=C1Nc2cc(Cl)ccc2C(=O)/C1=N/Nc1cccc(Cl)c1
- MIC [1]: > 6.25 µg/mL
- inhibition of growth at 6.25 µg/mL [2]: 47%

Compound: O=C1Nc2c(cccc2[N+](=O)[O-])C(=O)/C1=N/Nc1ccc(F)cc1
- MIC [1]: > 6.25 µg/mL
- inhibition of growth at 6.25 µg/mL [2]: 46%

Compound: COc1ccc(N/N=C2\C(=O)Nc3c(cccc3[N+](=O)[O-])C2=O)c(C)c1
- MIC [1]: > 6.25 µg/mL
- inhibition of growth at 6.25 µg/mL [2]: 45%

Compound: Cc1cccc(N/N=C2\C(=O)Nc3ccccc3C2=O)c1
- MIC [1]: > 6.25 µg/mL
- inhibition of growth at 6.25 µg/mL [2]: 42%

Compound: O=C1Nc2ccccc2C(=O)/C1=N/Nc1cccc(Cl)c1
- MIC [1]: > 6.25 µg/mL
- inhibition of growth at 6.25 µg/mL [2]: 41%

Compound: COc1ccc(N/N=C2\C(=O)Nc3c(Cl)ccc(Cl)c3C2=O)c(C)c1
- MIC [1]: > 6.25 µg/mL
- inhibition of growth at 6.25 µg/mL [2]: 40%

Compound: COc1ccc(N/N=C2\C(=O)c3cccc([N+](=O)[O-])c3N(C)C2=O)c(C)c1
- MIC [1]: > 6.25 µg/mL
- inhibition of growth at 6.25 µg/mL [2]: 40%

Compound: Cc1cccc2c1NC(=O)/C(=N\Nc1cccc(Cl)c1)C2=O
- MIC [1]: > 6.25 µg/mL
- inhibition of growth at 6.25 µg/mL [2]: 39%

Compound: CN1C(=O)/C(=N\Nc2ccc(Cl)cc2)C(=O)c2ccccc21
- MIC [1]: > 6.25 µg/mL
- inhibition of growth at 6.25 µg/mL [2]: 38%

Compound: COc1ccc(N/N=C2\C(=O)Nc3c(cccc3[N+](=O)[O-])C2=O)cc1
- MIC [1]: > 6.25 µg/mL
- inhibition of growth at 6.25 µg/mL [2]: 37%

Compound: COc1ccc(N/N=C2\C(=O)Nc3c(Cl)ccc(Cl)c3C2=O)cc1
- MIC [1]: > 6.25 µg/mL
- inhibition of growth at 6.25 µg/mL [2]: 36%

Compound: O=C1Nc2c(cccc2[N+](=O)[O-])C(=O)/C1=N/Nc1ccccc1-c1ccccc1
- MIC [1]: > 6.25 µg/mL
- inhibition of growth at 6.25 µg/mL [2]: 35%

Compound: Cc1ccc(N/N=C2\C(=O)Nc3c(Cl)cccc3C2=O)cc1
- MIC [1]: > 6.25 µg/mL
- inhibition of growth at 6.25 µg/mL [2]: 34%

Compound: O=C1Nc2c(ccc(Cl)c2Cl)C(=O)/C1=N/Nc1cccc(F)c1
- MIC [1]: < 6.25 µg/mL
- inhibition of growth at 6.25 µg/mL [2]: 80%

Compound: O=C1Nc2c(Cl)ccc(Cl)c2C(=O)/C1=N/Nc1ccc(F)cc1
- MIC [1]: < 6.25 µg/mL
- inhibition of growth at 6.25 µg/mL [2]: 80%

Compound: O=C1Nc2cc(Cl)ccc2C(=O)/C1=N/Nc1ccccc1
- MIC [1]: < 6.25 µg/mL
- inhibition of growth at 6.25 µg/mL [2]: 76%

Compound: Cc1cccc(N/N=C2\C(=O)Nc3cc(C)ccc3C2=O)c1
- MIC [1]: < 6.25 µg/mL
- inhibition of growth at 6.25 µg/mL [2]: 76%

Compound: O=C1Nc2ccc(Cl)cc2C(=O)/C1=N/Nc1ccc(F)cc1
- MIC [1]: < 6.25 µg/mL
- inhibition of growth at 6.25 µg/mL [2]: 71%

Compound: O=C1Nc2c(cccc2[N+](=O)[O-])C(=O)/C1=N/Nc1ccc([N+](=O)[O-])cc1
- MIC [1]: < 6.25 µg/mL
- inhibition of growth at 6.25 µg/mL [2]: 65%

Compound: Cc1cccc(N/N=C2\C(=O)Nc3c(ccc(Cl)c3Cl)C2=O)c1
- MIC [1]: < 6.25 µg/mL
- inhibition of growth at 6.25 µg/mL [2]: 62%

Compound: Cc1c(Cl)cccc1N/N=C1\C(=O)Nc2c(cccc2[N+](=O)[O-])C1=O
- MIC [1]: < 6.25 µg/mL
- inhibition of growth at 6.25 µg/mL [2]: 56%

Compound: COc1ccc(N/N=C2\C(=O)Nc3ccc(Cl)cc3C2=O)cc1
- MIC [1]: < 6.25 µg/mL
- inhibition of growth at 6.25 µg/mL [2]: 55%

Compound: O=C1Nc2ccc(Cl)cc2C(=O)/C1=N/Nc1ccc(Cl)c(Cl)c1
- MIC [1]: < 6.25 µg/mL
- inhibition of growth at 6.25 µg/mL [2]: 95%

Compound: Cc1ccc(N/N=C2\C(=O)Nc3cc([N+](=O)[O-])ccc3C2=O)cc1
- MIC [1]: < 6.25 µg/mL
- inhibition of growth at 6.25 µg/mL [2]: 92%

Compound: O=C1Nc2ccc(Cl)cc2C(=O)/C1=N/Nc1ccc([N+](=O)[O-])cc1
- MIC [1]: < 6.25 µg/mL
- inhibition of growth at 6.25 µg/mL [2]: 91%

Compound: CC(=O)c1ccc(N/N=C2\C(=O)Nc3c(cccc3[N+](=O)[O-])C2=O)cc1
- MIC [1]: < 6.25 µg/mL
- inhibition of growth at 6.25 µg/mL [2]: 89%

Compound: O=C1Nc2c(cccc2[N+](=O)[O-])C(=O)/C1=N/Nc1ccc(F)c(Cl)c1
- MIC [1]: < 6.25 µg/mL
- inhibition of growth at 6.25 µg/mL [2]: 85%

Compound: O=C1Nc2c(ccc(Cl)c2Cl)C(=O)/C1=N/Nc1cccc(Cl)c1
- MIC [1]: < 6.25 µg/mL
- inhibition of growth at 6.25 µg/mL [2]: 82%
